Tests used:
opioid analgesia = details: Chichenkov et al. 1985; cited from earlier work
morphine dependence = details: cited from earlier work
[1] = test system: post-operative pain in rats (thermal hyperalgesia); test: Thermal hyperalgesia (Ugo Basile plantar test) after plantar incision, post-operative pain in rats; format: in vivo, rat; details: given 3.5 h after surgery
[2] = test system: post-operative pain in rats (mechanical allodynia); details: rat, in vivo
sigma 2 (σ-2) site = sigma 2 (σ-2) site (Homo sapiens, UniProt Q5BJF2); details: cited from earlier work
Chain of sigma 2 (σ-2) site (Q5BJF2 whole entry): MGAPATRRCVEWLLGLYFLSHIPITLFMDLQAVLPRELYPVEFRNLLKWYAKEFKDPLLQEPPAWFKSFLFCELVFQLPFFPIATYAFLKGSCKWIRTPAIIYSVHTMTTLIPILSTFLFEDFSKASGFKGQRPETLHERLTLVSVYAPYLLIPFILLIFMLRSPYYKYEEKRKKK

O=C(CCCN1CCC(O)(c2ccc(Cl)cc2)CC1)c1ccc(F)cc1 [Haloperidol, haloperidol]
effect on activity of opioids and opiates (morphine, DADL, bremazocine) (opioid analgesia): potentiates the activity of different opioids and opiates

COc1ccc(CCN2CCN(CCCc3ccccc3)CC2)cc1OC [SA4503]
effect on addiction to morphine (morphine dependence; morphine-induced place preference, Nomura et al. 1999): modulatory effect on addiction to morphine

Cc1cc(OCCN2CCOCC2)nn1-c1ccc2ccccc2c1 [compound 63, 4-{2-[5-Methyl-1-(naphthalen-2-yl)-1H-pyrazol-3-yloxy]ethyl}morpholine]
effect on tramadol analgesia ([1]; compound 63 5, 10, 20, 40 mg/kg + tramadol 1.25 mg/kg): enhances tramadol analgesia
effect on morphine analgesia ([1]; compound 63 10, 20, 40, 80 mg/kg + morphine 0.625 mg/kg): enhances morphine analgesia
effect on buprenorphine analgesia [2]: enhances buprenorphine analgesia
effect on morphine analgesia [2]: enhances morphine analgesia
effect on oxycodone analgesia [2]: enhances oxycodone analgesia
effect on tapentadol analgesia [2]: enhances tapentadol analgesia
effect on tramadol analgesia [2]: enhances tramadol analgesia

SKF 10047
affinity for the sigma 2 site (sigma 2 (σ-2) site): micromolar affinity

dehydroepiandrosterone sulfate [DHEA]
effect on development of morphine dependence (morphine dependence; Noda et al. 2001): some capacity to attenuate the development of morphine dependence
